One series can be described thus: Solubility at pH 6.8. Format: physicochemical. Conditions: pH 6.8. The procedure, abridged: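 Solubility was measured at pH 6.8 following the cited Zhou et al. (2007) procedure.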
Another series has as its target T1, PI3K alpha (Homo sapiens, UniProt P42336).
T1 construct: p85(iSH2) fusion partner (see partner chain) (N); His tag (C); made in house; host or cells: baculovirus; Tn5 (Trichoplusia ni) or TiniPro insect cells
The series can be described thus: PI3K alpha kinase assay (Kinase-Glo luminescence). It counts as biochemical. The procedure, abridged:
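Luminescent ATP-depletion assay (Kinase-Glo) with 10 nM PI3Kα and 10 μg/mL phosphatidylinositol as lipid substrate at 1 μM ATP. Incubation lasts 60 min at room temperature.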

The next series has as its target T2, PI3K delta (Homo sapiens, UniProt O00329).
T2 construct: for the full-length p110-d subunit are generated and fused by overlapping PCR; p85(iSH2) fusion partner (see partner chain) (N); His tag (C); made in house; host or cells: baculovirus; Tn5 (Trichoplusia ni) or TiniPro insect cells
The experiment in a line: PI3K delta kinase assay (Kinase-Glo luminescence). It counts as biochemical. Put shortly: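 Inhibition is derived from luminescent detection of unconsumed ATP. The reaction runs for one hour at ambient temperature and contains the δ isoform fusion protein, phosphatidylinositol substrate and low (1 μM) ATP. Eight compound concentrations are tested in single, and a 4-parameter logistic model is used to calculate IC50.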
For orientation: Kinase-Glo reads ATP consumption through a luciferase reaction.

Series [1] concerns PKB Ser473 phosphorylation in Rat1-myr-HA-p110 alpha cells. The series can be described thus: Reverse protein array assay, PKB Ser473 phosphorylation in Rat1-myr-p110 alpha cells. Format: cell-based. As to conditions: 0.5 h, pAkt Ser473, 30 minutes compound incubation, read-out: p-PKB IC50. The procedure, abridged:
(§1)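 Cells: Rat1-myr-HA-p110 alpha/beta/delta, seeded ≥20 h. Lysis on ice 10 min; reverse-phase protein array, 4 lysate dilutions; fluorescence read, relative intensity.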

Series [2] deals with PKB Ser473 phosphorylation in Rat1-myr-HA-p110 beta cells. The series can be described thus: Reverse protein array assay, PKB Ser473 phosphorylation in Rat1-myr-p110 beta cells. Format: cell-based. Conditions: 0.5 h, pAkt Ser473, 30 minutes incubation, read-out: p-PKB IC50. Put shortly: as §1

≈ marks a conversion by molar mass, not a printed value.

T1 sequence (P42336 with tags, fused parts or gaps limits assumed): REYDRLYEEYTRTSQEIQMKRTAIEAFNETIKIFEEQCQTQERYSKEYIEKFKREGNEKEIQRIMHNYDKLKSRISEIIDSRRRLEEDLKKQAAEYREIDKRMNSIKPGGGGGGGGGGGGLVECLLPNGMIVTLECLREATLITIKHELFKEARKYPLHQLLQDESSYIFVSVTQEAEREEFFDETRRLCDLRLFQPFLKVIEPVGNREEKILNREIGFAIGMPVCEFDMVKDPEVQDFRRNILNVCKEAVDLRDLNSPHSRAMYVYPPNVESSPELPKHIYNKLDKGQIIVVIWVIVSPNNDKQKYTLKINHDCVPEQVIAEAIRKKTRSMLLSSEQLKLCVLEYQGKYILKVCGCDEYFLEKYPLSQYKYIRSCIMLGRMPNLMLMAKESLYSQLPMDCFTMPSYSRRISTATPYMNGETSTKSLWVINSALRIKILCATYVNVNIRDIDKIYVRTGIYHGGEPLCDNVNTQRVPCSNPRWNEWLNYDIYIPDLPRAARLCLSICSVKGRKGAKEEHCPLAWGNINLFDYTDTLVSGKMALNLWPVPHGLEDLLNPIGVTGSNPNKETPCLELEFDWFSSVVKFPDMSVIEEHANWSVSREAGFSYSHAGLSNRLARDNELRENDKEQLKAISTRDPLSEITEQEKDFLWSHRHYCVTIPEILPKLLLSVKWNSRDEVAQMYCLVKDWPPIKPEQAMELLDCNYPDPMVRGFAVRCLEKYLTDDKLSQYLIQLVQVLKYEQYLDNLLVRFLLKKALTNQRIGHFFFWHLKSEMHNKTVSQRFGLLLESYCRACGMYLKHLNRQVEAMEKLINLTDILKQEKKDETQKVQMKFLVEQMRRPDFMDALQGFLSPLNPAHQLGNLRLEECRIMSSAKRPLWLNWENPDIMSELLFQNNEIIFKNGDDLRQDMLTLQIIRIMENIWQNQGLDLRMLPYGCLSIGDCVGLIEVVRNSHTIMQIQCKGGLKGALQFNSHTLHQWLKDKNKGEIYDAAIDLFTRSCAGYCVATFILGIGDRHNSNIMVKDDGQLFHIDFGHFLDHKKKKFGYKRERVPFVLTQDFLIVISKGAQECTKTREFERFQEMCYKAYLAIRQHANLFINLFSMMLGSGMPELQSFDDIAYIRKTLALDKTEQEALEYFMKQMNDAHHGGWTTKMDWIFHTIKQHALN
T2 sequence (O00329 with tags, fused parts or gaps limits assumed): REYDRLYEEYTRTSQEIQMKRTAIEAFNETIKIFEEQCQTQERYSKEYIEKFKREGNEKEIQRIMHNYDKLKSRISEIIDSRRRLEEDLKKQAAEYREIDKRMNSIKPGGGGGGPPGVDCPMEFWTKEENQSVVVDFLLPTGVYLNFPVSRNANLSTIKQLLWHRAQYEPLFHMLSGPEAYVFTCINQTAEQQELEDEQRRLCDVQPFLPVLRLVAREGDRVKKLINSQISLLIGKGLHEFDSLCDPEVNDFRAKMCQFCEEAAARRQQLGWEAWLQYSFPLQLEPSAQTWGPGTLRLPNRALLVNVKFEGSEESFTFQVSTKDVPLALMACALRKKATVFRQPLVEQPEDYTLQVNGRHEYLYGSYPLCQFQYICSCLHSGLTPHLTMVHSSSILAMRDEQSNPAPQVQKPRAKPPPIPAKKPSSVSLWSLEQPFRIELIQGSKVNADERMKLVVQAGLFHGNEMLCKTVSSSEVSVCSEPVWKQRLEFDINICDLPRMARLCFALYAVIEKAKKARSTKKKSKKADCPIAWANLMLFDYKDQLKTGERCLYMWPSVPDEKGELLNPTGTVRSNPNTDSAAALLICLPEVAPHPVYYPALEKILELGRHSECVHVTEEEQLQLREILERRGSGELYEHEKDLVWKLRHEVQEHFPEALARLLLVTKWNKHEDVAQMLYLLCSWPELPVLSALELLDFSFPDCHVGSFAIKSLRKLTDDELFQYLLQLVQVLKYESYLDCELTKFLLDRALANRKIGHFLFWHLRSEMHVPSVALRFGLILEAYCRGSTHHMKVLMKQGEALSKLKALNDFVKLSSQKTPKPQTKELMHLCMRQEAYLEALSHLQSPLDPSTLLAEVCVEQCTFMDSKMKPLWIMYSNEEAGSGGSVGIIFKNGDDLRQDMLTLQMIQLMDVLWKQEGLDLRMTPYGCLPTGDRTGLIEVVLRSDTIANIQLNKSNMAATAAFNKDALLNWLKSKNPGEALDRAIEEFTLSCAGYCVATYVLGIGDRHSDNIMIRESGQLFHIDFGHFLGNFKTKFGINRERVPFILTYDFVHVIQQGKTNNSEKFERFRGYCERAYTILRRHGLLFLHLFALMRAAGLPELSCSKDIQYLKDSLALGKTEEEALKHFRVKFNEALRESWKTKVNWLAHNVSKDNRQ

Turning to `Cc1nn(C)cc1-n1c(=O)n(C)c2cnc3ccc(-c4cnc5c(c4)OCCN5C)cc3c21` [Example 209, 1-(1,3-Dimethyl-1H-pyrazol-4-yl)-3-methyl-8-(4-methyl-3,4-dihydro-2H-pyrido[3,2-b][1,4]oxazin-7-yl)-1,3-dihydro-imidazo[4,5-c]quinolin-2-one], the solubility (commonly the concentration that dissolves in the medium under given conditions) in “Solubility at pH 6.8” was found to be 2 µg/mL (≈ 4.53 µM). The IC50 (in general, the concentration needed to halve the response being measured) on PI3K alpha was determined as 6 nM; on PI3K delta, 9 nM; in series [1], 18 nM; in series [2] it was 22 nM.

These data come from patent US20140005163A1 (NOVARTIS AG, priority 2010, published 2014).
